Measurements: patent publication US20050272750A1, “Novel compound” (AstraZeneca AB, priority 2002, published 2005)

Tests used:
hrCXCR2 = target: T1, hrCXCR2 (Homo sapiens, UniProt P25025); experiment: Ligand binding assay ([125I]IL-8 displacement, HEK 293 membranes); settings: [125I]IL-8 binding to membranes of HEK 293 cells expressing hrCXCR2; 1.5 hours at room temperature
T1 construct: expressed in transfected cells; host or cells: HEK 293 cells (ECACC No. 85120602), membranes of the highest expressing clone
T1 sequence (P25025 1-360): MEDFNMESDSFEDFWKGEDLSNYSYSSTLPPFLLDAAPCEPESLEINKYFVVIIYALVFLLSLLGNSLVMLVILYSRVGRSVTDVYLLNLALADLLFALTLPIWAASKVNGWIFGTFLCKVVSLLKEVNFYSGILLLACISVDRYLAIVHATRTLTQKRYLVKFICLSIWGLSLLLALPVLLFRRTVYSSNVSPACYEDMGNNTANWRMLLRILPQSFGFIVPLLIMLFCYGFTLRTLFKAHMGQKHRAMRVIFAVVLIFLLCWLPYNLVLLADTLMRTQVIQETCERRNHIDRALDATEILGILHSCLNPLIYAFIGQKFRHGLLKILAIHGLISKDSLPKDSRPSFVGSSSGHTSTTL
Source text: [^125I]IL-8 (human, recombinant) was purchased from Amersham, U.K. with a specific activity of 2,000 Ci/mmol. All other chemicals were of analytical grade. High levels of hrCXCR2 were expressed in HEK 293 cells (human embryo kidney 293 cells ECACC No. 85120602) (Lee et al. (1992) J. Biol. Chem. 267 pp 16283-16291). hrCXCR2 cDNA was amplified and cloned from human neutrophil mRNA. The DNA was cloned into PCRScript (Stratagene) and clones were identified using DNA. The coding sequence was sub-cloned into the eukaryotic expression vector RcCMV (Invitrogen). Plasmid DNA was prepared using Quiagen Megaprep 2500 and transfected into HEK 293 cells using Lipofectamine reagent (Ginbco BRL). Cells of the highest expressing clone were harvested in phosphate-buffered saline containing 0.2% (w/v) ethylenediaminetetraacetic acid (EDTA) and centrifuged (200 g, 5 min.). The cell pellet was resuspended in ice cold homogenisation buffer [[…] HEPES (pH 7.4), 1 mM dithiothreitol 1 mM EDTA and a panel of protease inhibitors (1 mM phenyl methyl sulphonyl fluoride, 2 μg/ml soybean trypsin inhibitor, 3 mM benzamidine, 0.5 μg/ml leupeptin and 100 μg/ml bacitracin)] and the cells left to swell for 10 minutes. […] The backing plate was removed from the MultiScreen plate assembly, the filters dried at room temperature, punched out and then counted on a Cobra γ-counter.

[1] = target: T2, CXCR2 receptor in human neutrophils (Homo sapiens, UniProt P25025); experiment: Intracellular calcium mobilisation assay (GROα-stimulated, fluo-3, FLIPR); type: cell-based; settings: A50 concentration of GROα, fluo-3 fluorescence
T2 construct: Human neutrophils were prepared from EDTA-treated peripheral blood; endogenous in cells; host or cells: human neutrophils from peripheral blood
T2 sequence (P25025 1-360): T1 sequence (P25025 1-360)
Protocol: Intracellular Calcium Mobilisation Assay
Human neutrophils were prepared from EDTA-treated peripheral blood, as previously described (Baly et al. (1997) Methods in Enzymology 287 pp70-72), in storage buffer [Tyrode's salt solution (137 mM NaCl 2.7 mM KCl, 0.4 mM NaH2PO4) supplemented with 5.7 mM glucose and 10 mM HEPES (pH 7.4)].
The chemokine GROα (human, recombinant) was purchased from R&D Systems (Abingdon, U.K.). All other chemicals were of analytical grade. Changes in intracellular free calcium were measured fluorometrically by loading neutrophils with the calcium sensitive fluorescent dye, fluo-3, as described previously (Merritt et al. (1990) Biochem. J. 269, pp513-519). Cells were loaded for 1 hour at 37° C. in loading buffer (storage buffer with 0.1% (w/v) gelatin) containing 5 μM fluo-3 AM ester, washed with loading buffer and then resuspended in Tyrode's salt solution supplemented with 5.7 mM glucose, 0.1% (w/v) bovine serum albumin (BSA), 1.8 mM CaCl2 and 1 mM MgCl2. […]
A compound of formula (1) according to the Examples was pre-dissolved in DMSO and added to a final concentration of 0.1% (v/v) DMSO. Assays were initiated by the addition of an A50 concentration of GROα and the transient increase in fluo-3 fluorescence (λEx=490 nm and λEm=520 nm) monitored using a FLIPR (Fluorometric Imaging Plate Reader, Molecular Devices, Sunnyvale, U.S.A).

In the case of C[C@H](O)[C@H](CO)Nc1nc(SCc2cccc(F)c2F)nc2[nH]c(=O)sc12 [compound of formula (I), 5-[((2,3-difluorophenyl)methyl)thio]-7-{[(1S,2S)-2-hydroxy-1-(hydroxymethyl)propyl]amino}thiazolo[4,5-d]pyrimidin-2(3B)-one], the IC50 (hrCXCR2) is reported as under 10 µM, the “antagonism of the CXCR2 receptor (GROα-induced intracellular calcium increase)” value [1] is reported as “antagonist” and the melting point is reported as 202 to 204 °C.
